How the values were obtained:
Experiment in all cases: relative viability (nuclei count vs DMSO), 5 days (fraction); higher = more cells survive
AZD8055 + Dasatinib = compound: COc1ccc(-c2ccc3c(N4CCOC[C@@H]4C)nc(N4CCOC[C@@H]4C)nc3n2)cc1CO [AZD8055] + Cc1nc(Nc2ncc(C(=O)Nc3c(C)cccc3Cl)s2)cc(N2CCN(CCO)CC2)n1 [Dasatinib] (partner 0.075 µM)
Procedure, shortened: (§1)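 Relative viability is defined as nuclei in treated wells over nuclei in vehicle wells. Duplicate plates were run and medians reported. Lung cancer cell lines in 1536-well plates were dosed by pin tool one day after seeding, with one drug or with a fixed anchor-drug dose plus five library-drug doses (not always all listed) in √10 steps, and nuclei were counted after 5 days.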

AZD8055 + Luminespib = compound: COc1ccc(-c2ccc3c(N4CCOC[C@@H]4C)nc(N4CCOC[C@@H]4C)nc3n2)cc1CO [AZD8055] + CCNC(=O)c1noc(-c2cc(C(C)C)c(O)cc2O)c1-c1ccc(CN2CCOCC2)cc1 [Luminespib] (partner 0.01 µM)
Procedure, shortened: as §1

AZD8055 + Foretinib = compound: COc1ccc(-c2ccc3c(N4CCOC[C@@H]4C)nc(N4CCOC[C@@H]4C)nc3n2)cc1CO [AZD8055] + COc1cc2c(Oc3ccc(NC(=O)C4(C(=O)Nc5ccc(F)cc5)CC4)cc3F)ccnc2cc1OCCCN1CCOCC1 [Foretinib] (partner 0.25 µM)
Procedure, shortened: as §1

AZD8055 + Decitabine = compound: COc1ccc(-c2ccc3c(N4CCOC[C@@H]4C)nc(N4CCOC[C@@H]4C)nc3n2)cc1CO [AZD8055] + Nc1ncn([C@H]2C[C@H](O)[C@@H](CO)O2)c(=O)n1 [Decitabine] (partner 2 µM)
Procedure, shortened: as §1

Cell Line	relative viability (AZD8055 + Dasatinib; first compound 0.01 µM)	relative viability (AZD8055 + Dasatinib; first compound 0.03162 µM)	relative viability (AZD8055 + Dasatinib; first compound 0.1 µM)	relative viability (AZD8055 + Dasatinib; first compound 0.3162 µM)	relative viability (AZD8055 + Dasatinib; first compound 1 µM)	relative viability (AZD8055 + Luminespib; first compound 0.01 µM)	relative viability (AZD8055 + Luminespib; first compound 0.03162 µM)	relative viability (AZD8055 + Luminespib; first compound 0.1 µM)	relative viability (AZD8055 + Luminespib; first compound 0.3162 µM)	relative viability (AZD8055 + Luminespib; first compound 1 µM)	relative viability (AZD8055 + Foretinib; first compound 0.01 µM)	relative viability (AZD8055 + Foretinib; first compound 0.03162 µM)	relative viability (AZD8055 + Foretinib; first compound 0.1 µM)	relative viability (AZD8055 + Foretinib; first compound 0.3162 µM)	relative viability (AZD8055 + Foretinib; first compound 1 µM)	relative viability (AZD8055 + Decitabine; first compound 0.01 µM)	relative viability (AZD8055 + Decitabine; first compound 0.03162 µM)	relative viability (AZD8055 + Decitabine; first compound 0.1 µM)	relative viability (AZD8055 + Decitabine; first compound 0.3162 µM)	relative viability (AZD8055 + Decitabine; first compound 1 µM)
NCI-H1734	0.563	0.366	0.318	0.152	0.162	0.199	0.167	0.194	0.151	0.183	0.893	0.748	0.565	0.312	0.221	0.551	0.344	0.433	0.299	0.234
NCI-H1755	0.414	0.32	0.262	0.263	0.249	0.43	0.417	0.361	0.263	0.251	0.885	0.788	0.698	0.485	0.373	0.714	0.636	0.691	0.506	0.461
NCI-H1793	0.356	0.178	0.192	0.148	0.11	0.151	0.156	0.146	0.132	0.149	0.457	0.35	0.222	0.189	0.183	0.435	0.219	0.207	0.181	0.221
NCI-H1915	0.27	0.297	0.281	0.177	0.174	0.777	0.727	0.598	0.5	0.322	1.12	1.04	1.01	0.574	0.527	0.272	0.251	0.258	0.254	0.244
NCI-H1944	0.187	0.174	0.185	0.166	0.152	0.866	0.573	0.483	0.277	0.222	1.04	0.793	0.648	0.409	0.321	0.429	0.349	0.402	0.319	0.226
NCI-H1975	0.34	0.265	0.129	0.132	0.135	0.2	0.155	0.186	0.149	0.147	0.86	0.73	0.459	0.284	0.24	0.458	0.371	0.312	0.238	0.237
NCI-H1993	0.528	0.448	0.505	0.524	0.542	0.74	0.593	0.497	0.402	0.471	0.696	0.584	0.51	0.503	0.577	0.49	0.488	0.49	0.444	0.386
NCI-H2009	0.301	0.245	0.232	0.175	0.184	1.07	1.07	1.16	0.887	0.378	1.27	1.24	1.13	0.912	0.367	0.376	0.451	0.376	0.305	0.268
NCI-H2023	0.568	0.358	0.166	0.0954	0.103	0.591	0.411	0.138	0.1	0.128	0.787	0.817	0.654	0.26	0.126	0.243	0.161	0.175	0.129	0.118
NCI-H2085	0.205	0.201	0.199	0.217	0.195	0.447	0.387	0.294	0.21	0.281	0.945	0.919	0.602	0.278	0.329	0.576	0.512	0.379	0.456	0.426
NCI-H2087	0.957	0.637	0.792	0.292	0.216	0.171	0.163	0.138	0.124	0.141	1.04	0.857	0.676	0.461	0.315	0.28	0.182	0.236	0.153	0.113
NCI-H2126	0.535	0.5	0.464	0.281	0.316	0.921	0.884	0.484	0.308	0.312	1.32	1.05	0.91	0.575	0.593	0.623	0.499	0.485	0.434	0.331
NCI-H2170	0.557	0.558	0.333	0.205	0.197	0.633	0.715	0.403	0.233	0.165	1.07	1.04	0.868	0.451	0.397	0.537	0.363	0.456	0.252	0.218
NCI-H2342	0.316	0.288	0.268	0.293	0.304	0.579	0.535	0.599	0.419	0.424	0.999	1.05	0.801	0.538	0.578	0.741	0.653	0.668	0.668	0.504
NCI-H2347	0.307	0.29	0.252	0.235	0.213	0.295	0.251	0.367	0.282	0.222	0.804	0.949	0.454	0.403	0.386	0.625	0.533	0.533	0.495	0.374
NCI-H2405	0.225	0.204	0.215	0.188	0.183	0.757	0.564	0.536	0.289	0.279	1.03	0.977	0.816	0.432	0.381	0.79	0.715	0.593	0.363	0.339
